Patent US12721838B2 (Henry Ford Health System, priority 2020, dated 2026)

target: T1, Trib2-Luciferase (Luc-Trib2) fusion (Homo sapiens, UniProt Q92519); assay: cell-based; settings: HFF, read-out: Luciferase activity (%)
T1 sequence (Q92519 with tags, fused parts or gaps): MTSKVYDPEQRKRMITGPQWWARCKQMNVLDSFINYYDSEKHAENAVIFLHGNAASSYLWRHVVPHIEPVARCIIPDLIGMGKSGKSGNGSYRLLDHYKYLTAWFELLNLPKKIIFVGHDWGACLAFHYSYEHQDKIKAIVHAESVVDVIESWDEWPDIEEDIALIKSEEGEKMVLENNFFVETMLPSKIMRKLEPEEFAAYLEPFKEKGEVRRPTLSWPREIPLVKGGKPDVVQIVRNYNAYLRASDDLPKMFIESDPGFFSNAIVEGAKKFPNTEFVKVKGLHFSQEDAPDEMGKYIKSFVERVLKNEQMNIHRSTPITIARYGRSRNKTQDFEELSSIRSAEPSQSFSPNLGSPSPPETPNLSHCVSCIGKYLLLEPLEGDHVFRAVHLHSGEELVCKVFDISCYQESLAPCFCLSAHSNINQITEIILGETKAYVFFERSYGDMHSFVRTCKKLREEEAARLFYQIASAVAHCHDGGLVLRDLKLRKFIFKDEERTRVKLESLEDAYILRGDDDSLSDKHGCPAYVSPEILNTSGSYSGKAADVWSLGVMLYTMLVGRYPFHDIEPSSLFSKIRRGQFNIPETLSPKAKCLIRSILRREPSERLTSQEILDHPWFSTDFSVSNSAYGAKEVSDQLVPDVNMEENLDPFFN

Point of comparison: `C[C@@](Cc1ccc(O)c(O)c1)(NN)C(=O)O` [Carbidopa], activity at 10 µM 92%. Against it:
- CN1CCC(=C2c3ccccc3CCn3c(C=O)cnc32)CC1 [Alcaftadine] — higher, 100%
- C=CCc1ccccc1OCC(O)CNC(C)C (centres unmarked) [Alprenolol] — lower, 91%
- CCOC(=O)OC(C)OC1=C(C(=O)Nc2ccccn2)N(C)S(=O)(=O)c2ccccc21 (centres unmarked) [Ampiroxicam] — lower, 28%
- O=C1CN2Cc3c(ccc(Cl)c3Cl)N=C2N1 [Anagrelide] — the same, 92%
- CN1[C@@H]2CC[C@H]1C[C@@H](OC(=O)C(CO)c1ccccc1)C2 (some centres unmarked) [Atropine] — lower, 67%
- CN1C(=O)COc2c(C(=O)NC3CN4CCC3CC4)cc(Cl)cc21 (centres unmarked) [Azasetron] — higher, 100%
- O=C(O)CCNC(=O)c1ccccc1 [Betamipron] — lower, 87%
- CCCC1O[C@@H]2C[C@H]3[C@@H]4CCC5=CC(=O)C=C[C@]5(C)[C@H]4[C@@H](O)C[C@]3(C)[C@]2(C(=O)CO)O1 (some centres unmarked) [Budesonide] — lower, 83%
- CS(=O)(=O)OCCCCOS(C)(=O)=O [Busulfan] — higher, 100%
- O=C(O)CCCc1ccc(N(CCCl)CCCl)cc1 [Chlorambucil] — higher, 96%
- CC[C@H]1OC(=O)[C@H](C)[C@@H](O[C@H]2C[C@@](C)(OC)[C@@H](O)[C@H](C)O2)[C@H](C)[C@@H](O[C@@H]2O[C@H](C)C[C@H](N(C)C)[C@H]2O)[C@](C)(OC)C[C@@H](C)C(=O)[C@H](C)[C@@H](O)[C@]1(C)O [Clarithromycin] — higher, 97%
- COc1cc(N)c(Cl)cc1C(=O)NC1CCN(Cc2ccccc2)CC1 [Clebopride] — higher, 100%
- CC(C)(Oc1ccc(Cl)cc1)C(=O)O [Clofibric acid] — lower, 87%
- O=C(O)c1cc(=O)c2c(OCC(O)COc3cccc4oc(C(=O)O)cc(=O)c34)cccc2o1 [Cromolyn] — higher, 93%
- CC(C)(C)c1nc(-c2cccc(NS(=O)(=O)c3c(F)cccc3F)c2F)c(-c2ccnc(N)n2)s1 [Dabrafenib] — lower, 72%
- CN1C[C@@H]2C[C@H]1CN2c1cc2c(cc1F)c(=O)c(C(=O)O)cn2C1CC1 [Danofloxacin] — lower, 81%
- CN(C)[C@@H](CCOc1cccc2ccccc12)c1ccccc1 [Dapoxetine] — lower, 88%
- C[C@@H](CN1CC(=O)NC(=O)C1)N1CC(=O)NC(=O)C1 [Dexrazoxane] — higher, 100%
- OCCN(CCO)c1nc(N2CCCCC2)c2nc(N(CCO)CCO)nc(N3CCCCC3)c2n1 [Dipyridamole] — higher, 98%
- CC[C@H]1OC(=O)[C@H](C)[C@@H](O[C@H]2C[C@@](C)(OC)[C@@H](O)[C@H](C)O2)[C@H](C)[C@@H](O[C@@H]2O[C@H](C)C[C@H](N(C)C)[C@H]2O)[C@](C)(O)C[C@@H](C)[C@@H]2N[C@@H](COCCOC)O[C@H]([C@H]2C)[C@]1(C)O [Dirithromycin] — higher, 100%
- COc1cccc2c1C(=O)c1c(O)c3c(c(O)c1C2=O)C[C@@](O)(C(=O)CO)C[C@@H]3O[C@H]1C[C@H](N)[C@H](O)[C@H](C)O1 [Doxorubicin] — lower, 28%
- C[C@H]1c2cccc(O)c2C(=O)C2=C(O)[C@]3(O)C(=O)C(C(N)=O)=C(O)[C@@H](N(C)C)[C@@H]3[C@@H](O)[C@@H]21 [Doxycycline] — lower, 91%
- O=C(CCCN1CC=C(n2c(=O)[nH]c3ccccc32)CC1)c1ccc(F)cc1 [Droperidol] — higher, 100%
- O=C1Nc2ccc(Cl)cc2[C@@](C#CC2CC2)(C(F)(F)F)O1 [Efavirenz] — lower, 89%
- CC1=C(C(=O)OCCN(Cc2ccccc2)c2ccccc2)C(c2cccc([N+](=O)[O-])c2)C(P2(=O)OCC(C)(C)CO2)=C(C)N1 (centres unmarked) [Efonidipine] — higher, 98%
- CC(/C=C1\SC(=S)N(CC(=O)O)C1=O)=C\c1ccccc1 [Epalrestat] — lower, 53%
- C#Cc1cccc(Nc2ncnc3cc(OCCOC)c(OCCOC)cc23)c1 [Erlotinib] — lower, 50%
- C[C@]12CC[C@@H]3c4ccc(O)cc4CC[C@H]3[C@@H]1CCC2=O [Estrone] — lower, 82%
- CC[C@@H](CO)NCCN[C@@H](CC)CO [Ethambutol] — higher, 98%
- CCOC(=O)c1cncn1[C@H](C)c1ccccc1 [Etomidate] — higher, 100%
- NC(N)=Nc1nc(CSCCC(N)=NS(N)(=O)=O)cs1 [Famotidine] — higher, 100%
- CC(C)OC(=O)C(C)(C)Oc1ccc(C(=O)c2ccc(Cl)cc2)cc1 [Fenofibrate] — the same, 92%
- CCCCc1nc(C)c(CC(=S)N(C)C)c(=O)n1Cc1ccc(-c2ccccc2-c2nnn[nH]2)cc1 [Fimasartan] — lower, 88%
- CCCCCCCCc1ccc(CCC(N)(CO)CO)cc1 [Fingolimod] — lower, 80%
- CC(=O)OCC(=O)[C@@]12OC(C)(C)O[C@@H]1C[C@H]1[C@@H]3C[C@H](F)C4=CC(=O)C=C[C@]4(C)[C@@]3(F)[C@@H](O)C[C@@]12C [Fluocinonide] — lower, 78%
- N=C(N)NC(=O)Cc1c(Cl)cccc1Cl [Guanfacine] — higher, 100%
- CC(C)C(=O)c1c(C(C)C)nn2ccccc12 [Ibudilast] — lower, 85%
- CN(C)CCCN1c2ccccc2CCc2ccccc21 [Imipramine] — lower, 86%
- CCc1c2c(nc3ccc(OC(=O)N4CCC(N5CCCCC5)CC4)cc13)-c1cc3c(c(=O)n1C2)COC(=O)[C@]3(O)CC [Irinotecan] — lower, 85%
- O[C@@H]1CO[C@H]2[C@@H]1OC[C@@H]2O [Isosorbide] — lower, 91%
- Cc1c(OCC(F)(F)F)ccnc1C[S+]([O-])c1nc2ccccc2[nH]1 (centres unmarked) [Lansoprazole] — lower, 78%
- C[N+](C)(C)C[C@H](O)CC(=O)[O-] [Levocarnitine] — lower, 84%
- CCOC(=O)CC(SP(=S)(OC)OC)C(=O)OCC (centres unmarked) [Malathion] — lower, 91%
- Cc1cnc(NC(=O)C2=C(O)c3ccccc3S(=O)(=O)N2C)s1 [Meloxicam] — higher, 100%
- CC(=O)OC(C)C[N+](C)(C)C (centres unmarked) [Methacholine] — higher, 99%
- Cc1cccc(C)c1OCC(C)N (centres unmarked) [Mexiletine] — lower, 86%
- CN1CCN2c3ccccc3Cc3ccccc3C2C1 (centres unmarked) [Mianserin] — lower, 55%
- CCN(CC)C(=O)C1(c2ccccc2)CC1CN (centres unmarked) [Milnacipran] — lower, 85%
- Cc1cc(-c2ccccc2)nnc1NCCN1CCOCC1 [Minaprine] — lower, 79%
- Cc1ccccc1C(=O)Nc1ccc(C(=O)N2CCCC(N(C)C)c3ccccc32)cc1 (centres unmarked) [Mozavaptan] — lower, 86%
- CC1CCc2c(N3CCC(O)CC3)c(F)cc3c(=O)c(C(=O)O)cn1c23 (centres unmarked) [Nadifloxacin] — higher, 96%
- O=C(Nc1ccc([N+](=O)[O-])cc1Cl)c1cc(Cl)ccc1O [Niclosamide] — lower, 62%
- Cc1cn(-c2cc(NC(=O)c3ccc(C)c(Nc4nccc(-c5cccnc5)n4)c3)cc(C(F)(F)F)c2)cn1 [Nilotinib] — higher, 99%
- COC(=O)C1=C(C#N)NC(C)=C(C(=O)OC(C)C)C1c1cccc([N+](=O)[O-])c1 (centres unmarked) [Nilvadipine] — lower, 89%
- COc1ccc2c(c1OC)C(=O)O[C@@H]2[C@H]1c2c(cc3c(c2OC)OCO3)CCN1C [Noscapine] — higher, 100%
- CCCc1nc(C(C)(C)O)c(C(=O)O)n1Cc1ccc(-c2ccccc2-c2nnn[nH]2)cc1 [Olmesartan] — lower, 80%
- NCCC[C@H](NC(=O)[C@@H]1CCCN1C(=O)[C@@H]1CSSC[C@H](N)C(=O)N[C@@H](Cc2ccc(O)cc2)C(=O)N[C@@H](Cc2ccccc2)C(=O)N[C@@H](CCC(N)=O)C(=O)N[C@@H](CC(N)=O)C(=O)N1)C(=O)NCC(N)=O [Ornipressin] — lower, 27%
- CC(=O)N1C[C@H](O)C[C@H]1C(=O)O [Oxaceprol] — higher, 100%
- Fc1ccc([C@@H]2CCNC[C@H]2COc2ccc3c(c2)OCO3)cc1 [Paroxetine] — higher, 93%
- Cc1cccn2c(=O)c(-c3nnn[nH]3)cnc12 [Pemirolast] — lower, 88%
- OC1(c2ccc(Cl)c(C(F)(F)F)c2)CCN(CCCC(c2ccc(F)cc2)c2ccc(F)cc2)CC1 [Penfluridol] — lower, 71%
- c1cc(CN2CCCNCCNCCCNCC2)ccc1CN1CCCNCCNCCCNCC1 [Plerixafor] — higher, 93%
- Cc1ccc(C(=O)Nc2ccc(CN3CCN(C)CC3)c(C(F)(F)F)c2)cc1C#Cc1cnc2cccnn12 [Ponatinib] — lower, 42%
- COc1cc2nc(N3CCN(C(=O)c4ccco4)CC3)nc(N)c2cc1OC [Prazosin] — lower, 49%
- CCCOc1ccc(C(=O)OCCN(CC)CC)cc1N [Proparacaine] — lower, 88%
- CN(C)C(=O)Oc1ccc[n+](C)c1 [Pyridostigmine] — lower, 76%
- CCC(=O)NCC[C@@H]1CCc2ccc3c(c21)CCO3 [Ramelteon] — higher, 100%
- COc1ccccc1OCC(O)CN1CCN(CC(=O)Nc2c(C)cccc2C)CC1 (centres unmarked) [Ranolazine] — higher, 100%
- Cn1c([N+](=O)[O-])cnc1COC(N)=O [Ronidazole] — higher, 100%
- Nc1ccc(S(=O)(=O)Nc2ncccn2)cc1 [Sulfadiazine] — lower, 70%
- [H]/N=C(/N)NS(=O)(=O)c1ccc(N)cc1 [Sulfaguanidine] — lower, 84%
- Cc1nnc(NS(=O)(=O)c2ccc(N)cc2)s1 [Sulfamethizole] — higher, 94%
- CC1(C)CCC(C)(C)c2cc(NC(=O)c3ccc(C(=O)O)cc3)ccc21 [Tamibarotene] — higher, 100%
